One assay concerns the target Human β2 adrenoceptor (Homo sapiens, UniProt P07550). The following applies: read-out: B2 binding affinity.
In a further assay the target is Human M3 receptor (Homo sapiens, UniProt P20309). As to conditions: read-out: M3 binding affinity.

Where only a bound is given, the exact number is not on record here.

Human β2 adrenoceptor, sequence (P07550 whole entry): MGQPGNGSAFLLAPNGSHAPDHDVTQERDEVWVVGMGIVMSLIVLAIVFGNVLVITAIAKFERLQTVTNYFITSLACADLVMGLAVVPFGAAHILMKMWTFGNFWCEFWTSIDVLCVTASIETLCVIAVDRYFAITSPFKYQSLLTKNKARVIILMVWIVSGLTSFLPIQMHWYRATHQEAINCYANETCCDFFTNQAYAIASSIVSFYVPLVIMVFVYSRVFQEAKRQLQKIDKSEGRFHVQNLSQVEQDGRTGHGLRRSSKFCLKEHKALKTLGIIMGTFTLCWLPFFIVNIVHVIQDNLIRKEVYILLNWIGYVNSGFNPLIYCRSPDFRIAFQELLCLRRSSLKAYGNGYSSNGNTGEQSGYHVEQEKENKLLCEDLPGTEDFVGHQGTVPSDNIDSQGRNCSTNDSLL
Human M3 receptor, sequence (P20309 whole entry): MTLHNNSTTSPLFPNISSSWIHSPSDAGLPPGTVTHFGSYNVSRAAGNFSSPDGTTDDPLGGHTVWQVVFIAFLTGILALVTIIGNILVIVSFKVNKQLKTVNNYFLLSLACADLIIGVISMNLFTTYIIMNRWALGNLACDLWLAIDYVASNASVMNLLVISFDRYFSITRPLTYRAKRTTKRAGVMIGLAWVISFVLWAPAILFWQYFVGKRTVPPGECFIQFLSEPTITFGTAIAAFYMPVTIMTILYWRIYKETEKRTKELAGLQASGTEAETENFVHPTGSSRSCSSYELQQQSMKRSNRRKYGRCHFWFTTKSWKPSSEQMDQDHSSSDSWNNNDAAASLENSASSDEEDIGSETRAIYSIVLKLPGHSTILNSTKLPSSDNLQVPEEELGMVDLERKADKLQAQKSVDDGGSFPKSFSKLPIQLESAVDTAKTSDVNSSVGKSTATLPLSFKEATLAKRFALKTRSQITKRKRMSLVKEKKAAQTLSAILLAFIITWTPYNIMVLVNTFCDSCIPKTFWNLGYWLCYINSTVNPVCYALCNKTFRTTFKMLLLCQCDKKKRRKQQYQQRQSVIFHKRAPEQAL

Turning to `O=C(OCC1CCN(Cc2ccccc2)CC1)C(O)(c1ccccc1)c1cccc(OCCCCCNC[C@H](O)c2ccc(O)c3[nH]c(=O)ccc23)c1` (stereo partly drawn) [Compound 1, (1-Benzylpiperidin-4-yl)methyl 2-hydroxy-2-(3-((5-(((R)-2-hydroxy-2-(8-hydroxy-2-oxo-1,2-dihydroquinolin-5-yl)ethyl)amino)pentyl)oxy)phenyl)-2-phenylacetate], the IC50 on Human β2 adrenoceptor was less than 0.3 nM; at Human M3 receptor, 0.3 to 3 nM.

On to `Cc1ccc(C(O)(C(=O)OCC2CCN(Cc3ccccc3)CC2)c2cccc(OCCCCCNC[C@H](O)c3ccc(O)c4[nH]c(=O)ccc34)c2)cc1` (stereo partly drawn) [Compound 2, (1-benzylpiperidin-4-yl)methyl 2-hydroxy-2-(3-((5-(((R)-2-hydroxy-2-(8-hydroxy-2-oxo-1,2-dihydroquinolin-5-yl)ethyl)amino)pentyl)oxy)phenyl)-2-(p-tolyl)acetate], for which the IC50 on Human β2 adrenoceptor and at Human M3 receptor was 0.3 to 3 nM throughout.

Regarding `O=C(OCC1CCN(Cc2ccccc2)CC1)C(O)(c1ccc(F)cc1)c1cccc(OCCCCCNC[C@H](O)c2ccc(O)c3[nH]c(=O)ccc23)c1` (stereo partly drawn) [Compound 3, (1-benzylpiperidin-4-yl)methyl 2-(4-fluorophenyl)-2-hydroxy-2-(3-((5-(((R)-2-hydroxy-2-(8-hydroxy-2-oxo-1,2-dihydroquinolin-5-yl)ethyl)amino)pentyl)oxy)phenyl)acetate], the IC50 was less than 0.3 nM on Human β2 adrenoceptor and 0.3 to 3 nM at Human M3 receptor.

Regarding `O=C(OCC1CCN(Cc2ccccc2)CC1)C(O)(c1cccc(F)c1)c1cccc(OCCCCCNC[C@H](O)c2ccc(O)c3[nH]c(=O)ccc23)c1` (stereo partly drawn) [Compound 4, (1-benzylpiperidin-4-yl)methyl 2-(3-fluorophenyl)-2-hydroxy-2-(3-((5-(((R)-2-hydroxy-2-(8-hydroxy-2-oxo-1,2-dihydroquinolin-5-yl)ethyl)amino)pentyl)oxy)phenyl)acetate], the IC50 is less than 0.3 nM on Human β2 adrenoceptor and 0.3 to 3 nM on Human M3 receptor.

Regarding `Cc1cccc(C(O)(C(=O)OCC2CCN(Cc3ccccc3)CC2)c2cccc(OCCCCCNC[C@H](O)c3ccc(O)c4[nH]c(=O)ccc34)c2)c1` (stereo partly drawn) [Compound 5, (1-benzylpiperidin-4-yl)methyl 2-hydroxy-2-(3-((5-(((R)-2-hydroxy-2-(8-hydroxy-2-oxo-1,2-dihydroquinolin-5-yl)ethyl)amino)pentyl)oxy)phenyl)-2-(m-tolyl)acetate], the IC50 at Human β2 adrenoceptor and on Human M3 receptor was 0.3 to 3 nM in each case.

Take `O=C(OCC1CCN(Cc2ccccc2)CC1)C(O)(c1cccc(OCCCCCNC[C@H](O)c2ccc(O)c3[nH]c(=O)ccc23)c1)c1ccccc1Cl` (stereo partly drawn) [Compound 6, (1-benzylpiperidin-4-yl)methyl 2-(2-chlorophenyl)-2-hydroxy-2-(3-((5-(((R)-2-hydroxy-2-(8-hydroxy-2-oxo-1,2-dihydroquinolin-5-yl)ethyl)amino)pentyl)oxy)phenyl)acetate]: the IC50 on Human β2 adrenoceptor was less than 0.3 nM; at Human M3 receptor, more than 3 nM.

With `Cc1ccccc1C(O)(C(=O)OCC1CCN(Cc2ccccc2)CC1)c1cccc(OCCCCCNC[C@H](O)c2ccc(O)c3[nH]c(=O)ccc23)c1` (stereo partly drawn) [Compound 7, (1-benzylpiperidin-4-yl)methyl 2-hydroxy-2-(3-((5-(((R)-2-hydroxy-2-(8-hydroxy-2-oxo-1,2-dihydroquinolin-5-yl)ethyl)amino)pentyl)oxy)phenyl)-2-(o-tolyl)acetate], the IC50 was 0.3 to 3 nM on Human β2 adrenoceptor and more than 3 nM at Human M3 receptor.

As for `CCc1ccccc1C(O)(C(=O)OCC1CCN(Cc2ccccc2)CC1)c1cccc(OCCCCCNC[C@H](O)c2ccc(O)c3[nH]c(=O)ccc23)c1` (stereo partly drawn) [Compound 8, (1-benzylpiperidin-4-yl)methyl 2-(2-ethylphenyl)-2-hydroxy-2-(3-((5-(((R)-2-hydroxy-2-(8-hydroxy-2-oxo-1,2-dihydroquinolin-5-yl)ethyl)amino)pentyl)oxy)phenyl)acetate], the IC50 was 0.3 to 3 nM at Human β2 adrenoceptor and more than 3 nM at Human M3 receptor.

Regarding `O=C(OCC1CCN(Cc2ccccc2)CC1)C(O)(c1cccc(OCCCCCNC[C@H](O)c2ccc(O)c3[nH]c(=O)ccc23)c1)c1cccs1` (stereo partly drawn) [Compound 9, (1-benzylpiperidin-4-yl)methyl 2-hydroxy-2-(3-((5-(((R)-2-hydroxy-2-(8-hydroxy-2-oxo-1,2-dihydroquinolin-5-yl)ethyl)amino)pentyl)oxy)phenyl)-2-(thiophen-2-yl)acetate], the IC50 was less than 0.3 nM on Human β2 adrenoceptor and 0.3 to 3 nM on Human M3 receptor.

Turning to `O=C(OCC1CCN(Cc2ccccc2)CC1)C(O)(c1cccc(OCCCCCNC[C@H](O)c2ccc(O)c3[nH]c(=O)ccc23)c1)C1CCCCC1` (stereo partly drawn) [Compound 10, (1-benzylpiperidin-4-yl)methyl 2-cyclohexyl-2-hydroxy-2-(3-((5-(((R)-2-hydroxy-2-(8-hydroxy-2-oxo-1,2-dihydroquinolin-5-yl)ethyl)amino)pentyl)oxy)phenyl)acetate], the IC50 on Human β2 adrenoceptor and on Human M3 receptor was 0.3 to 3 nM in each case.

Regarding `CCc1cccc(C(O)(C(=O)OCC2CCN(Cc3ccccc3)CC2)c2cccc(OCCCCCNC[C@H](O)c3ccc(O)c4[nH]c(=O)ccc34)c2)c1` (stereo partly drawn) [Compound 11, (1-benzylpiperidin-4-yl)methyl 2-(3-ethylphenyl)-2-hydroxy-2-(3-((5-(((R)-2-hydroxy-2-(8-hydroxy-2-oxo-1,2-dihydroquinolin-5-yl)ethyl)amino)pentyl)oxy)phenyl)acetate], the IC50 at Human β2 adrenoceptor and on Human M3 receptor was less than 0.3 nM each time.

As to `O=C(OCC1CCN(Cc2ccccc2)CC1)[C@](O)(c1ccccc1)c1cccc(OCCCCCNC[C@H](O)c2ccc(O)c3[nH]c(=O)ccc23)c1` [Compound 13, (S)-(1-Benzylpiperidin-4-yl)methyl 2-hydroxy-2-(3-((5-(((R)-2-hydroxy-2-(8-hydroxy-2-oxo-1,2-dihydroquinolin-5-yl)ethyl)amino)pentyl)oxy)phenyl)-2-phenylacetate], the IC50 at Human β2 adrenoceptor and on Human M3 receptor was less than 0.3 nM throughout.

Consider `O=C(OCC1CCN(Cc2ccccc2)CC1)[C@@](O)(c1ccccc1)c1cccc(OCCCCCNC[C@H](O)c2ccc(O)c3[nH]c(=O)ccc23)c1` [Compound 14, (R)-(1-benzylpiperidin-4-yl)methyl 2-hydroxy-2-(3-((5-(((R)-2-hydroxy-2-(8-hydroxy-2-oxo-1,2-dihydroquinolin-5-yl)ethyl)amino)pentyl)oxy)phenyl)-2-phenylacetate], for which the IC50 on Human β2 adrenoceptor was less than 0.3 nM; on Human M3 receptor, more than 3 nM.

In the case of `CN1CCC(COC(=O)[C@](O)(c2ccccc2)c2cccc(OCCCCCNC[C@H](O)c3ccc(O)c4[nH]c(=O)ccc34)c2)CC1` [Compound 23, (S)-(1-methylpiperidin-4-yl)methyl 2-hydroxy-2-(3-((5-(((R)-2-hydroxy-2-(8-hydroxy-2-oxo-1,2-dihydroquinolin-5-yl)ethyl)amino)pentyl)oxy)phenyl)-2-phenylacetate], the IC50 at Human β2 adrenoceptor and at Human M3 receptor was 0.3 to 3 nM throughout.

As for `CN1CCC(COC(=O)[C@@](O)(c2ccccc2)c2cccc(OCCCCCNC[C@H](O)c3ccc(O)c4[nH]c(=O)ccc34)c2)CC1` [Compound 24, (R)-(1-methylpiperidin-4-yl)methyl 2-hydroxy-2-(3-((5-(((R)-2-hydroxy-2-(8-hydroxy-2-oxo-1,2-dihydroquinolin-5-yl)ethyl)amino)pentyl)oxy)phenyl)-2-phenylacetate], the IC50 at Human β2 adrenoceptor was less than 0.3 nM; on Human M3 receptor it was more than 3 nM.

For the molecule `O=C(OCC1CCN(Cc2ccccc2)CC1)[C@](O)(c1ccccc1)c1cccc(OCCCCCCCNC[C@H](O)c2ccc(O)c3[nH]c(=O)ccc23)c1` [Compound 28, (S)-(1-benzylpiperidin-4-yl)methyl 2-hydroxy-2-(3-((7-(((R)-2-hydroxy-2-(8-hydroxy-2-oxo-1,2-dihydroquinolin-5-yl)ethyl)amino)heptyl)oxy)phenyl)-2-phenylacetate], the IC50 on Human β2 adrenoceptor and at Human M3 receptor was 0.3 to 3 nM each time.

For `O=C(c1ccc(CCNC[C@H](O)c2ccc(O)c3[nH]c(=O)ccc23)cc1)N1CCC(COc2cccc([C@](O)(C(=O)OCC3CCN(Cc4ccccc4)CC3)c3ccccc3)c2)CC1` [Compound 31, (S)-(1-Benzylpiperidin-4-yl)methyl 2-hydroxy-2-(3-((1-(4-(2-(((R)-2-hydroxy-2-(8-hydroxy-2-oxo-1,2-dihydroquinolin-5-yl)ethyl)amino)ethyl)benzoyl)piperidin-4-yl)methoxy)phenyl)-2-phenylacetate], the IC50 at Human β2 adrenoceptor and at Human M3 receptor was less than 0.3 nM each time.

For the molecule `O=C(NCCCOc1cccc([C@](O)(C(=O)OCC2CCN(Cc3ccccc3)CC2)c2ccccc2)c1)c1ccc(CNC[C@H](O)c2ccc(O)c3[nH]c(=O)ccc23)cc1` [Compound 32, (S)-(1-benzylpiperidin-4-yl)methyl 2-hydroxy-2-(3-(3-(4-((((R)-2-hydroxy-2-(8-hydroxy-2-oxo-1,2-dihydroquinolin-5-yl)ethyl)amino)methyl)benzamido)propoxy)phenyl)-2-phenylacetate], the figures for the IC50 at Human β2 adrenoceptor and at Human M3 receptor were less than 0.3 nM and 0.3 to 3 nM, respectively.

`COc1cc(C(=O)NCCCOc2cccc([C@](O)(C(=O)OCC3CCN(Cc4ccccc4)CC3)c3ccccc3)c2)ccc1CNC[C@H](O)c1ccc(O)c2[nH]c(=O)ccc12` [Compound 32A, (S)-(1-benzylpiperidin-4-yl)methyl 2-hydroxy-2-(3-(3-(4-((((R)-2-hydroxy-2-(8-hydroxy-2-oxo-1,2-dihydroquinolin-5-yl)ethyl)amino)methyl)-3-methoxybenzamido)propoxy)phenyl)-2-phenylacetate]: the IC50 at Human β2 adrenoceptor is less than 0.3 nM; on Human M3 receptor, 0.3 to 3 nM.

`COc1cc(CNC[C@H](O)c2ccc(O)c3[nH]c(=O)ccc23)ccc1C(=O)NCCCOc1cccc([C@](O)(C(=O)OCC2CCN(Cc3ccccc3)CC2)c2ccccc2)c1` [Compound 32B, (S)-(1-benzylpiperidin-4-yl)methyl 2-hydroxy-2-(3-(3-(4-((((R)-2-hydroxy-2-(8-hydroxy-2-oxo-1,2-dihydroquinolin-5-yl)ethyl)amino)methyl)-2-methoxybenzamido)propoxy)phenyl)-2-phenylacetate]: the IC50 at Human β2 adrenoceptor and on Human M3 receptor was less than 0.3 nM in each case.

These data come from US9579314B2 (priority 2015, dated 2017).
